# Like-named read-outs stand apart in the source and are kept apart here.
# Legend:
# bovine coronary artery = assay: Vasorelaxant activity in bovine coronary artery rings; details: for Vascular Relax. % (10 μM): rings precontracted with U-46619, 100% relaxation = basal pre-U-46619 tension; for EC50: Bos taurus, bovine coronary artery rings precontracted with U-46619, read-out: Vascular Relax. EC50
# Method: Vasorelaxant activity was measured in bovine coronary artery. Bovine hearts were obtained and the left anterior descending coronary artery was dissected and cleaned of connective tissue. Vessels of 1 mm diameter were cut into rings of 3 mm width as previously described (3, 27, 39). […] The vessels were suspended from a pair of stainless steel hooks in a 6-ml water jacketed organ chamber. […] One hook was anchored to a steel rod and the other hook to a force transducer (model FT-03C; Grass Instruments, West Warwick, R.I.). Tension of the vessel was measured by an ETH-400 bridge amplifier, and the data were acquired with a MacLab 8e analog-to-digital converter and MacLab software version 3.5.6 (AD Instruments, Milford, Mass.) and stored on a Macintosh computer for subsequent data analysis.
# Basal tension was set at the length-tension maximum of 3.5 g and equilibrated for 1.5 h. KCl (40 mM) was added to the chamber until reproducible maximal contractions were maintained. […] Cumulative additions of compounds were added to the chamber. Between concentration-response curves, the chambers were rinsed with fresh Krebs buffer, 40 mM KCl was administered to determine the maximum contraction, and the vessels were rinsed. Consecutive concentration-response curves were performed with 14,15-EET followed by a concentration-response curve to a compound. The experiment was always repeated with the order of the agonists reversed. […] The relaxation was plotted versus compound concentration and the EC50 determined utilizing statistical software.
# Human recombinant sEH = Human recombinant sEH (Homo sapiens (Human), UniProt P34913); assay: Soluble epoxide hydrolase inhibition (PHOME fluorescent substrate); type: biochemical
# Method: Compounds were tested for their ability to inhibit recombinant soluble epoxide hydrolase (sEH) protein. The assay utilizes (3-Phhenyl-oxiranyl)-acetic acid cyano-(6-methoxy-naphthalen-2-yl)-methyl ester (PHOME), a sensitive substrate for sEH that can be used to monitor the activity of both human and murine enzymes. […] Human recombinant sEH was incubated with substrate and compounds ranging in concentration from 0.1 to 1000 nM.
# [1] = tested on: Spontaneously Hypertensive Rats (SHR); assay: Telemetry blood pressure and heart rate in spontaneously hypertensive rats; type: in vivo, rat
# Description: To accurately detect changes in blood pressure and heart rate, telemetry transmitters (Data Sciences Inc., St. Paul, Minn.) were implanted in rats one week prior to the experimental period according to manufacturer's specifications while under pentobarbital anesthesia. In brief, an incision was made to expose the femoral artery that was occluded to allow insertion of the transmitter catheter. The catheter was secured in place with tissue glue and the transmitter body was sutured in place and the incision line was closed. Rats were allowed to recover from surgery and were returned to individual housing. A baseline arterial pressure was recorded for prior to the experimental period. Mean arterial pressure was continuously recorded throughout the experimental period.
# Telemetry transmitters were implanted into male SHR as described. After the surgical recovery period, baseline mean arterial pressure was recorded. In this series of experiments, EET analogs were administered by osmotic pump (2 mg/d, i.p.) and blood pressure was continuously monitored.
# [2] = tested on: cisplatin-induced nephrotoxicity in Wistar-Kyoto (WKY) rats; assay: Cisplatin-induced nephrotoxicity in rats; type: in vivo, rat
# Description: Experiments were approved and carried out according to the guidelines of the Institutional Animal Care and Use Committee, Medical College of Wisconsin, Milwaukee, USA. Male Wistar-Kyoto (WKY) rats weighing 180-200 g (Charles River, Mass., USA). All animals were kept in a temperature-controlled environment with a 12-h light/dark cycle and were allowed free access to food and water at all times. An acclimatization period of 6 days was allowed for the rats before experimentation. The rats were assigned into four groups. […] Rats received drinking water ad libitum for seven days and on day 7 DMSO (Sigma Aldrich, St. Louis, Mo., USA) was administered (300-500 μl i.p.). […] These rats are pretreated with the EET analog […].) for seven days in drinking water and then on day 7 administered CP as a single injection (7 mg/kg i.p.) followed by another five days treatment with EET-A. […] One day before the rats were sacrificed, urine of each rat was collected over a 24-h period, and the volume was measured. Five days after CP or DMSO administration, rats were anesthetized for blood sample collection followed by euthanasia and tissue collection. Urine and plasma samples were kept frozen at -80° C. until analyzed. The kidneys were removed, washed with physiological saline and stored at -80° C. until used for RT-PCR analysis, thiobarbituric acid reactive substance (TBARS) measurement and caspase 3 activity assay. […] The levels of blood urea nitrogen (BUN) (BioAssay Systems, Hayward, Calif., USA) and serum creatinine (Cayman Chemical Company, Ann Arbor, Mich., USA) were measured spectrophotometrically using commercial kits. Urinary content of creatinine and protein were measured using commercial kits (Cayman Chemical Company, Ann Arbor, Mich., USA), and the activity of urinary N-acetyl-b-glucosaminidase (NAG) in the urine was measured by a kit from Diazyme (Diazyme Laboratories, Poway, Calif., USA). While urine content of kidney injury molecule-1 (KIM-1) was measured using ELISA (R&D Systems, Inc. Minneapolis, Minn., USA). Malondialdehyde (MDA) is a thiobarbituric acid reactive substance (TBARS) that is formed as an end-product of lipid peroxidation and serves as an important index of oxidative stress. […] Using a commercially available kit (Cayman Chemical Company, Ann Arbor, Mich., USA), MDA was measured spectrophotometrically after reaction with thiobarbituric acid. […] Louis, Mo., USA). Kidney homogenate was prepared with a lysis Buffer (50 mM HEPES, pH 7.4, with 5 mM CHAPS and 5 mM DTT). […] The caspase 3 activity is expressed as nmol of AMC/min/μL. Real-Time analysis was carried out to assess the expression of oxidative (gp91phox, NOX1, SOD1, SOD2, SOD3), inflammatory (TNF-α, IL-6, apoptotic (Bax, Bak, Bcl-2) and endoplasmic reticulum stress (GRP78, caspase 12) related genes in the kidney. Total RNA was isolated from kidney homogenate using TRIzol LS reagents (Invitrogen Life Technologies, Carlsbad, Calif., USA) according to the manufacturer's instructions. The isolated RNA was treated with RNase-free DNase (Invitrogen, Carlsbad, Calif., USA) to remove traces of genomic DNA contamination. The mRNA samples were quantified by spectrophotometry at 260 nm and 1 μg of total RNA was reverse-transcribed to cDNA using iScriptTM Select cDNA Synthesis Kit (Bio-Rad, Hercules, Calif., USA). The target gene expression was quantified by iScript One-Step RT-PCR Kit with SYBR green using MyiQTM Single Color Real-Time PCR Detection System (Bio-Rad Laboratories, Hercules, Calif., USA). Each amplified sample in all wells was analyzed for homogeneity using dissociation curve analysis using iQ5 Optical System Software, Version 2.1 (Bio-Rad Laboratories, Hercules, Calif., USA). […] In analyzing the relative expression of the target genes, the Ct values were normalized to a housekeeping gene (pgk1). Statistical analyses were carried out for at least 5-7 experimental samples in each experimental group. Primers used in this study were designed based on several earlier reports. […]
# [3] = human recombinant sEH, PHOME substrate, 0.1 to 1000 nM, read-out: sEHi IC50
# Human recombinant sEH, sequence (P34913 whole entry): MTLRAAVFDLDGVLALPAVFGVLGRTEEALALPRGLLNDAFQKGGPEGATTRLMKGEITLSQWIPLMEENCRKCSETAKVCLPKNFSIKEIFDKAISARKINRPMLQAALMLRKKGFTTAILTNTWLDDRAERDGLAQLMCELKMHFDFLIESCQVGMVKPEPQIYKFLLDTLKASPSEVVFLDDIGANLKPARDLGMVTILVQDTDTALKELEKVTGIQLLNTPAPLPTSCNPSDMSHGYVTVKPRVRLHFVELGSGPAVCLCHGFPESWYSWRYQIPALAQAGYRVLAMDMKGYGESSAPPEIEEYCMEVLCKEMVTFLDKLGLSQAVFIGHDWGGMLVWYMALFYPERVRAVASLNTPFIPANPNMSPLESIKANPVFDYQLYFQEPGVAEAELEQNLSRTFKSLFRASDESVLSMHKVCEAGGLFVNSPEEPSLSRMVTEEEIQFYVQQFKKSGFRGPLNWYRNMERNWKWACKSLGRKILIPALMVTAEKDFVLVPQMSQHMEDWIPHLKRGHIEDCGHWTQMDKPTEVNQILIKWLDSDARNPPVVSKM
smiles,measurement,setting,value
"CCCCCNC(=O)NCCCC/C=C\CCCCCCC(=O)N[C@@H](CC(=O)O)C(=O)O (stereo in doubt) [Compound 7, (S)-2-(13-(3-n-Pentylureido)tridec-8(Z)-enamido)succinic acid]",Vascular Relax. % (10 μM),bovine coronary artery,91%
"CCCCCCC(=O)N(CCCC/C=C\CCCCCCC(=O)OCCOCCOCCO)C(C)C [Compound 1, 2-(2-(2-Hydroxyethoxyl)ethoxy)ethyl 13-(N-isopropylheptanamido)tridec-8(Z)-enoate]",Vascular Relax. % (10 μM),bovine coronary artery,86%
same,EC50,bovine coronary artery,2900 nM
"CCCCCNC(=O)NCCCC/C=C\CCCCCCC(=O)OCCOCCOCCO [Compound 2, 2-(2-(2-Hydroxyethoxyl)ethoxy)ethyl 13-(3-n-pentylureido)tridec-8(Z)-enoate]",Vascular Relax. % (10 μM),bovine coronary artery,72%
same,EC50,bovine coronary artery,5100 nM
"CCCCNC(=O)C(=O)NCCCC/C=C\CCCCCCC(=O)OCCOCCOCCO [Compound 3, 2-(2-(2-Hydroxyethoxyl)ethoxy)ethyl13-(2-(n-butylamino)-2 oxoacetamido)tridec-8(Z)-enoate]",Vascular Relax. % (10 μM),bovine coronary artery,104%
same,EC50,bovine coronary artery,1500 nM
"CCCCCNC(=O)NCCCC/C=C\CCCCOCC(=O)O [Compound 4, 2-(10-(3-n-Pentylureido)dec-5(Z)-enyloxy)acetic acid]",Vascular Relax. % (10 μM),bovine coronary artery,49%
"CCCCCCC(=O)N(CCCC/C=C\CCCCCCC(=O)NCC(=O)O)C(C)C [Compound 5, 2-(13-(N-Isopropylheptanamido)tridec-8(Z)-enamido)acetic acid]",IC50,Human recombinant sEH; [3],> 500 nM
same,Vascular Relax. % (10 μM),bovine coronary artery,95%
"CCCCCN(C)C(=O)N(C)CCCC/C=C\CCCCCCC(=O)NCC(=O)O [Compound 6, 2-(13-(1,3-Dimethyl-3-n-pentylureido)tridec-8(Z)-enamido)acetic acid]",Vascular Relax. % (10 μM),bovine coronary artery,92%
"CCCCCNC(=O)NCCCC/C=C\CCCCCCC(=O)NS(=O)(=O)c1ccccc1 [Compound 8, 13-(3-n-Pentylureido)-N-(phenylsulfonyl)tridec-8(Z)-enamide]",Vascular Relax. % (10 μM),bovine coronary artery,73%
"CCCCCNC(=O)NCCCC/C=C\CCCCCCC(=O)NS(C)(=O)=O [Compound 9, N-(Methylsulfonyl)-13-(3-n-pentylureido)tridec-8(Z)-enamide]",Vascular Relax. % (10 μM),bovine coronary artery,61%
CCCCCNC(=O)NCCCC/C=C\CCCCCCP(=O)([O-])[O-].[Na+].[Na+] [Compound 10],Vascular Relax. % (10 μM),bovine coronary artery,71%
CCCCCNC(=O)NCCCC/C=C\CCCCCCS(=O)(=O)[O-].[Na+] [Compound 11],Vascular Relax. % (10 μM),bovine coronary artery,63%
CCCCCCC(=O)N(CCCC/C=C\CCCCCCc1nnn[nH]1)C(C)C [Compound 19],IC50,Human recombinant sEH; [3],> 500 nM
same,Vascular Relax. % (10 μM),bovine coronary artery,74%
CCCCCNC(=O)NCCCC/C=C\CCCCCCc1nnn[nH]1 [Compound 20],heart rate,"[1]; 2 mg/d i.p., vehicle 331±17.0",325±11.0 BPM
CCCCNC(=O)C(=O)NCCCC/C=C\CCCCCCc1nnn[nH]1 [Compound 21],Vascular Relax. % (10 μM),bovine coronary artery,96%
"CCCCCNC(=O)NCCCC/C=C\CCCCCCCc1nnn[nH]1 [Compound 22, 1-(13-(1H-Tetrazol-5-yl)tridec-5(Z)-enyl)-3-n-pentylurea]",Vascular Relax. % (10 μM),bovine coronary artery,110%
CCCCCNC(=O)NCCCC/C=C\CCCCCCc1noc(=O)[nH]1 [Compound 23],Vascular Relax. % (10 μM),bovine coronary artery,89%
CCCCCCC(=O)N(CCCC/C=C\CCCCCCC1=NOS(=O)N1)C(C)C (stereo not shown) [Compound 26],blood pressure,"[1]; 2 mg/d i.p. osmotic pump, after two weeks of treatment, vehicle 141±3.0",150±5.0 mmHg
CCCCCNC(=O)NCCCC/C=C\CCCCCCc1noc(=S)[nH]1 [Compound 28],Vascular Relax. % (10 μM),bovine coronary artery,93%
CCCCCNC(=O)NCCCC/C=C\CCCCCCc1nsc(=O)[nH]1 [Compound 29],Vascular Relax. % (10 μM),bovine coronary artery,54%
"CCCCCCC(=O)N(CCCCCOc1cccc2sc(NC(C)=O)nc12)C(C)C [Compound 30, N-(5-(2-Acetamidobenzo[d]thiazol-4-yloxy)pentyl)-N-isopropylheptanamide]",start of blood pressure lowering,[1]; effect maintained until end of two-week treatment,within four days
same,IC50,Human recombinant sEH; read-out: SEHi activity IC50,> 500 nM
same,IC50,Human recombinant sEH; read-out: sEHi IC50,> 500 nM
same,Vascular Relax. % (10 μM),bovine coronary artery,96%
"CCCCCNC(=O)NCCCCCOc1cccc2sc(NC(C)=O)nc12 [Compound 31, N-(4-(5-(3-n-Pentylureido)pentyloxy)benzo[d]thiazol-2-yl)acetamide]",Vascular Relax. % (10 μM),bovine coronary artery,73%
"CCCCNC(=O)C(=O)NCCCCCOc1cccc2sc(NC(C)=O)nc12 [Compound 32, N^1-(5-(2-Acetamidobenzo[d]thiazol-4-yloxy)pentyl)-N^2-n-butyloxalamide]",IC50,Human recombinant sEH; [3],> 500 nM
same,Vascular Relax. % (10 μM),bovine coronary artery,96%
"CCCCCCC(=O)N(CCCCCOc1cccc2sc(NC(=O)C(C)(C)C)nc12)C(C)C [EET-B, N-Isopropyl-N-(5-(2-pivalamidobenzo[d]thiazol-4-yloxy)pentyl)heptanamide]",kidney TBARS formation,"[2]; 10 mg/kg/d p.o., vehicle 16±2",8 ± 1 µmol/g
same,"reductions in renal mRNA expressions of inflammatory markers (TNF-α, IL-6, interleukin-1β)",[2]; cisplatin-administered rats,40-60%
same,proteinuria,"[2]; cisplatin-administered rats, vehicle 53±5",32 ± 3 mg/day
same,reductions in the elevated levels of serum creatinine and BUN,"[2]; five days after cisplatin, vs. vehicle",30-50%
same,NAG,"[2]; urinary, 10 mg/kg/d p.o., vehicle 3.0±0.6",0.6±0.2 U/d
same,KIM-1,"[2]; urinary, 10 mg/kg/d p.o., vehicle 296±94",57 ± 13 ng/day

# From patent US9422318B2, “Epoxyeicosatrienoic acid analogs and methods of making and using the same” (THE MEDICAL COLLEGE OF WISCONSIN, INC., priority 2011, dated 2016)
